From patent publication US8168638B2, “Pyrazinecarboxamide derivatives and plant disease controlling agents containing the same” (Nihon Nohyaku Co., Ltd., priority 2005, dated 2012)

System: Blumeria graminis f. sp. hordei
Assay: Test on the controlling effect against powdery mildew of barley plant
Assay type: in vivo
Conditions: barley plant (Kantoh No. 6), foliar application, active-ingredient concentration 200 ppm, application rate 50 mL, 7 days after inoculation
From the text: Equation (1): Protective value (%)=A/B×100 (1) where: • A; [(Ratio of the afflicted spotted leaf surface area in non-treated section to the total leaf surface area)−(Ratio of the afflicted spotted leaf surface area in treated section to the total leaf surface area)] • B; (Ratio of the afflicted spotted leaf surface area in non-treated section to the total leaf surface area) Criteria of Judgment: 0: Less than […] in protective value 1: 10 to 19% in protective value 2: 20 to 29% in protective value 3: 30 to 39% in protective value 4: 40 to 49% in protective value 5: 50 to 59% in protective value 6: 60 to 69% in protective value 7: 70 to 79% in protective value 8: 80 to 89% in protective value 9: 90 to 99% in protective value 10: 100% in protective value A one-leaf aged barley plant (the cultivar: Kantoh No. 6) raised as a seedling in a pot of 6 cm in diameter was subjected to foliar application with a diluted emulsion of the emulsifiable concentrate of the compound of the present invention prepared in accordance with Agrochemical Formulation Example 1, which diluted emulsion was produced by diluting the concentrate with water to the specifically determined volume. […] Seven days after the inoculation, the controlling effect was assessed according the criteria of judgment as set forth in Test Example 1.

O=C(Nc1ccccc1-c1ccc(Cl)cc1)c1cccnc1Cl [Control Compound C, 2-Chloro-N-(4′-chlorobiphenyl-2-yl)-nicotinamide]
controlling effect assessed according to the criteria of judgment: 4 (40 to 49% in protective value)
